According to publication PMC5478727, “A Novel Small Molecule GDNF Receptor RET Agonist, BT13, Promotes Neurite Growth from Sensory Neurons in Vitro and Attenuates Experimental Neuropathy in the Rat” (Frontiers in Pharmacology, 2017):

Key:
[1] = system: Akt and Erk phosphorylation in parental MG87 cells; assay: Erk1/2 and Akt phosphorylation assay in parental MG87 cells; type: cell-based, murine; conditions: BT13 10–100 μM
[2] = system: adult rat lumbar DRG sensory neurons; assay: Neurite outgrowth from cultured DRG neurons; type: cell-based; conditions: NGF 10 ng/ml, BT13 100 ng/ml
Protocol: Cultured lumbar DRG (L3–L5) neurons were prepared using a published method (O'Mullane et al., [2013]). After plating onto poly-L-ornithine (5 μg/ml)/laminin (5 μg/ml) coated coverslips for 1 h, DRG neurons were cultured for 24–30 h in fresh Neurobasal A/B27. GFLs, BT13, NGF, and vehicle control were added at the start of this period for a 24–30 h treatment, except when preceded by pre-treatment (1 h) with inhibitors (50 μM LY294002; 2 μM SU6656, […]; Biomol Research Laboratories, Plymouth Meeting, PA, USA). DRG neurons were then fixed (4% paraformaldehyde) and processed for immunocytochemistry with 1:200 Mouse anti-β III tubulin/AlexaFluor 594 (Sigma-Aldrich Cat# T8660 RRID:AB_477590) and 1:5,000 rabbit anti-calcitonin gene-related peptide/AlexaFluor 488 (Sigma-Aldrich Cat# C8198 RRID:AB_259091) and DAPI for nuclear staining (0.5 μg/ml, Molecular Probes). Image analysis of multichannel 12 bit Zeiss .ZVI or .TIF files (captured with a Zeiss Imager.M1/MRm camera/Zen software; Carl Zeiss Australia, North Ryde, NSW, Australia) was then performed by a researcher blinded to the experimental condition. Neurite initiation was measured by a single parameter (proportion of neurons with neurites longer than the soma diameter). Neurite elongation was measured by batch processing (HCA-Vision software; CSIRO Mathematical and Information Sciences, North Ryde, NSW, Australia) to obtain four parameters—Root number: number of primary neurites; Maximum length: length of longest neurite; Branch points: number of neurite branch points; and Total length: sum of neurite lengths (Kalous and Keast, [2010]; Kalous et al., [2012]). The number of neurons of each immunocytochemical class counted on each coverslip (technical replicates) was 50 for neurite initiation and 20 for neurite elongation. A minimum of three cultures from different rats (biological replicates) were analyzed for each treatment group.

[3] = CGRP-positive neurons, vs control

SMILES: CCN(CC)S(=O)(=O)c1ccc(OC)c(N2CCN(C(=O)c3ccc(F)cc3C(F)(F)F)CC2)c1 [BT13]
- Akt and Erk phosphorylation [1]: no Akt or Erk phosphorylation was observed
- neurite initiation or extension ([2]; CGRP-negative neurons, ARTN 30 ng/ml): no effect
- neurite initiation ([2]; CGRP-positive neurons, ARTN 30 ng/ml, overnight): no effect
- neurite elongation, branch points, mean difference [2, 3]: 22 ± 5
- neurite elongation, maximum length, mean difference [2, 3]: 91 ± 13 μm
- neurite elongation, total length, mean difference [2, 3]: 797 ± 207 μm
- proportion of DRG neurons that expressed CGRP in culture ([2]; ARTN 30 ng/ml): did not alter
